Measured values as given in ChEMBL document CHEMBL1629711, “Synthesis and in vitro biological evaluation of new polyamine conjugates as potential anticancer drugs” (Eur J Med Chem, 2010).
Active and inactive are the calls of the source. No cut-off for these calls is given here.

Tests used:
[1] = tested on: A-375; assay: Cytotoxicity against human A375 cells at 1 to 100 uM after 44 hrs by MTT assay; format: functional, cell-based
[2] = tested on: A-375; assay: Cytotoxicity against human A375 cells after 44 hrs by MTT assay; format: functional, cell-based; conditions: for IC50: A-375, 44 h
[3] = tested on: A-375; assay: Induction of apoptosis in human A375 cells assessed as morphological changes at IC50 concentration after 44 hrs using acridine orange and ethidium bromide staining by fluorescence microscopy; format: functional, cell-based
[4] = tested on: A-375; assay: Cell cycle arrest in human A375 cells assessed as accumulation at G2/M phase at 20 uM after 24 hrs using propidium iodide staining by flow cytometry relative to control; format: functional
[5] = tested on: A-375; assay: Cell cycle arrest in human A375 cells assessed as accumulation at S phase at 20 uM after 24 hrs using propidium iodide staining by flow cytometry relative to control; format: functional
[6] = tested on: A-375; assay: Cell cycle arrest in human A375 cells assessed as accumulation at hypodiploid subG1 phase at 20 uM after 24 hrs using propidium iodide staining by flow cytometry relative to control; format: functional
[7] = tested on: A-375; assay: Cell cycle arrest in human A375 cells assessed as accumulation at G0/G1 phase at 20 uM after 24 hrs using propidium iodide staining by flow cytometry relative to control; format: functional
[8] = tested on: A-375; assay: Induction of necrosis in human A375 cells assessed as morphological changes at IC50 concentration after 44 hrs using acridine orange and ethidium bromide staining by fluorescence microscopy; format: functional, cell-based
[9] = tested on: A-375; assay: Induction of apoptosis in human A375 cells assessed as morphological changes at 50 uM after 44 hrs using acridine orange and ethidium bromide staining by fluorescence microscopy; format: functional
[10] = tested on: A-375; assay: Cell cycle arrest in human A375 cells assessed as accumulation at hypodiploid subG1 phase at 50 uM after 24 hrs using propidium iodide staining by flow cytometry relative to control; format: functional
[11] = tested on: A-375; assay: Cell cycle arrest in human A375 cells assessed as accumulation at G2/M phase at 50 uM after 24 hrs using propidium iodide staining by flow cytometry relative to control; format: functional
[12] = tested on: A-375; assay: Cell cycle arrest in human A375 cells assessed as accumulation at S phase at 50 uM after 24 hrs using propidium iodide staining by flow cytometry relative to control; format: functional
[13] = tested on: A-375; assay: Cell cycle arrest in human A375 cells assessed as accumulation at G0/G1 phase at 50 uM after 24 hrs using propidium iodide staining by flow cytometry relative to control; format: functional

O=C1c2ccccc2C(=O)N1CCCN1CCN(CCCN2C(=O)c3ccccc3C2=O)CC1
Activity [1]: inactive

CN(CCCN1C(=O)c2cccc([N+](=O)[O-])c2C1=O)CCCN1C(=O)c2cccc([N+](=O)[O-])c2C1=O
Activity [1]: inactive

Nc1c(C(=O)NCCCN2CCN(CCCNC(=O)c3cnc4ccccc4c3N)CC2)cnc2ccccc12
inhibition [2]: Dose-dependent effect | IC50 [2]: 16.8 µM | Activity [3]: inactive | Activity [4]: 21% | Activity [5]: 31% | Activity [6]: 4% | Activity [7]: 49% | Activity [8]: inactive | Activity [9]: 30%

Cc1ccc2nnc(C(=O)NCCCOCCCCOCCCNC(=O)c3nnc4ccc(C)cc4c3N)c(N)c2c1
inhibition [2]: Dose-dependent effect | IC50 [2]: 100 µM | Activity [3]: inactive | Activity [8]: inactive

CN(CCCN1C(=O)c2ccccc2C1=O)CCCN1C(=O)c2ccccc2C1=O
Activity [1]: inactive

Cc1ccc2nnc(C(=O)NCCCN(C)CCCNC(=O)c3nnc4ccc(C)cc4c3N)c(N)c2c1
inhibition [2]: Dose-dependent effect | IC50 [2]: 116 µM | Activity [3]: inactive | Activity [8]: inactive

Nc1c(C(=O)NCCCOCCCCOCCCNC(=O)c2cnc3ccccc3c2N)cnc2ccccc12
inhibition [2]: Dose-dependent effect | IC50 [2]: 15.5 µM | Activity [3]: inactive | Activity [10]: 3% | Activity [4]: 20% | Activity [11]: 8% | Activity [12]: 53% | Activity [5]: 22% | Activity [6]: 2% | Activity [7]: 58% | Activity [13]: 39% | Activity [8]: inactive | Activity [9]: 8%

O=C1c2ccccc2C(=O)N1CCCOCCCCOCCCN1C(=O)c2ccccc2C1=O
Activity [1]: inactive

Cc1ccc2nnc(C(=O)NCCCN3CCN(CCCNC(=O)c4nnc5ccc(C)cc5c4N)CC3)c(N)c2c1
inhibition [2]: Dose-dependent effect | IC50 [2]: 31.6 µM | Activity [3]: inactive | Activity [10]: 9% | Activity [4]: 46% | Activity [11]: 46% | Activity [12]: 22% | Activity [5]: 19% | Activity [6]: 4% | Activity [7]: 35% | Activity [13]: 32% | Activity [8]: inactive | Activity [9]: 14%

CN(CCCNC(=O)c1cnc2ccccc2c1N)CCCNC(=O)c1cnc2ccccc2c1N
inhibition [2]: Dose-dependent effect | IC50 [2]: 87.9 µM | Activity [3]: inactive | Activity [8]: inactive

O=C1c2cccc([N+](=O)[O-])c2C(=O)N1CCCN1CCN(CCCN2C(=O)c3cccc([N+](=O)[O-])c3C2=O)CC1
Activity [1]: inactive

O=C1c2cccc([N+](=O)[O-])c2C(=O)N1CCCOCCCCOCCCN1C(=O)c2cccc([N+](=O)[O-])c2C1=O
Activity [1]: inactive
